What all share (assay): relative viability (nuclei count vs DMSO), 5 days (fraction); higher = more cells survive
Compound in the assay “Serdemetan + Alpelisib”: c1ccc2c(CCNc3ccc(Nc4ccncc4)cc3)c[nH]c2c1 [Serdemetan] + Cc1nc(NC(=O)N2CCC[C@H]2C(N)=O)sc1-c1ccnc(C(C)(C)C(F)(F)F)c1 [Alpelisib] (partner 2 µM)
An outline of the steps:
(§1)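 Lung cancer cell lines in 1536-well plates were dosed by pin tool the day after seeding, either with one drug alone or with a fixed anchor-drug dose plus five library-drug doses (not always all listed) in √10 steps. After 5 days, cells were fixed and their nuclei stained in one step (final 0.05% Triton X-100, 1% formaldehyde, 1 ug/ml Hoechst), then counted on 4× images. Relative viability is the nuclei count in treated wells divided by that in vehicle wells. Values are medians of duplicate plates.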

Compound in the assay “Selisistat + OSI-027”: C1CC(C2=C(C1)C3=C(N2)C=CC(=C3)Cl)C(=O)N [Selisistat] + COc1cccc2cc(-c3nc([C@H]4CC[C@H](C(=O)O)CC4)n4ncnc(N)c34)[nH]c12 [OSI-027] (partner 0.5 µM)
The gist of the method: as §1

Compound in the assay “Selisistat + AZD7762”: C1CC(C2=C(C1)C3=C(N2)C=CC(=C3)Cl)C(=O)N [Selisistat] + NC(=O)Nc1cc(-c2cccc(F)c2)sc1C(=O)N[C@H]1CCCNC1 [AZD7762] (partner 0.2 µM)
The gist of the method: as §1

Compound in the assay “Selisistat + Tozasertib”: C1CC(C2=C(C1)C3=C(N2)C=CC(=C3)Cl)C(=O)N [Selisistat] + Cc1cc(Nc2cc(N3CCN(C)CC3)nc(Sc3ccc(NC(=O)C4CC4)cc3)n2)n[nH]1 [Tozasertib] (partner 0.1 µM)
An outline of the steps:
as §1

These results are taken from the supplement of paper PMC10307832.

For NCI-H358, the relative viability with Serdemetan + Alpelisib (first compound 0.04 µM) turned out to be 0.86; in the assay with Serdemetan + Alpelisib (first compound 0.1265 µM) it was 0.946; with Serdemetan + Alpelisib (first compound 0.4 µM) it was 0.906; with Serdemetan + Alpelisib (first compound 1.265 µM), 0.679; with Serdemetan + Alpelisib (first compound 4 µM) it was 0.734; in the assay with Selisistat + OSI-027 (first compound 0.4 µM), 0.926. In addition, the relative viability with Selisistat + OSI-027 (first compound 1.265 µM) was 0.802; with Selisistat + OSI-027 (first compound 4 µM), 0.363; with Selisistat + OSI-027 (first compound 12.65 µM) it was 0.709; in the assay with Selisistat + OSI-027 (first compound 40 µM) it was 0.905; in the assay with Selisistat + AZD7762 (first compound 0.4 µM) it was 0.532; with Selisistat + AZD7762 (first compound 1.265 µM), 0.589. Also, the relative viability was 0.518 with Selisistat + AZD7762 (first compound 12.65 µM); 0.639 with Selisistat + AZD7762 (first compound 40 µM); 0.0984 with Selisistat + Tozasertib (first compound 0.4 µM); 0.1 in the assay with Selisistat + Tozasertib (first compound 1.265 µM); 0.102 with Selisistat + Tozasertib (first compound 4 µM); 0.092 in the assay with Selisistat + Tozasertib (first compound 12.65 µM). For the same cell line, the relative viability with Selisistat + Tozasertib (first compound 40 µM) is 0.0962.

For the cell line NCI-H838, the relative viability was found to be 0.994 with Serdemetan + Alpelisib (first compound 0.04 µM); 0.953 with Serdemetan + Alpelisib (first compound 0.1265 µM); 0.995 with Serdemetan + Alpelisib (first compound 0.4 µM); 0.962 with Serdemetan + Alpelisib (first compound 1.265 µM); 1.13 with Serdemetan + Alpelisib (first compound 4 µM); 0.449 with Selisistat + OSI-027 (first compound 0.4 µM). Also, the relative viability was determined as 0.368 with Selisistat + OSI-027 (first compound 1.265 µM); 0.295 with Selisistat + OSI-027 (first compound 4 µM); 0.407 with Selisistat + OSI-027 (first compound 12.65 µM); 0.409 with Selisistat + OSI-027 (first compound 40 µM); 0.933 in the assay with Selisistat + AZD7762 (first compound 0.4 µM); 0.91 with Selisistat + AZD7762 (first compound 1.265 µM). The relative viability with Selisistat + AZD7762 (first compound 4 µM) is 0.958; with Selisistat + AZD7762 (first compound 12.65 µM), 0.971; in the assay with Selisistat + AZD7762 (first compound 40 µM) it was 1.03; with Selisistat + Tozasertib (first compound 0.4 µM), 0.238; with Selisistat + Tozasertib (first compound 1.265 µM), 0.278; with Selisistat + Tozasertib (first compound 4 µM), 0.245. The results for the relative viability with Selisistat + Tozasertib (first compound 12.65 µM) and with Selisistat + Tozasertib (first compound 40 µM) were 0.26 and 0.249, respectively.

On to CAL-12T, for which the relative viability in the assay with Serdemetan + Alpelisib (first compound 0.04 µM) stood at 1.11; with Serdemetan + Alpelisib (first compound 0.1265 µM), 1.5; in the assay with Serdemetan + Alpelisib (first compound 0.4 µM), 1.23; in the assay with Serdemetan + Alpelisib (first compound 4 µM) it was 1.18; with Selisistat + OSI-027 (first compound 0.4 µM), 0.726; in the assay with Selisistat + OSI-027 (first compound 1.265 µM) it was 0.535. In addition, the relative viability in the assay with Selisistat + OSI-027 (first compound 4 µM) came to 0.472; with Selisistat + OSI-027 (first compound 12.65 µM) it was 0.53; with Selisistat + OSI-027 (first compound 40 µM), 0.694; with Selisistat + AZD7762 (first compound 0.4 µM), 0.589; with Selisistat + AZD7762 (first compound 1.265 µM), 0.626; in the assay with Selisistat + AZD7762 (first compound 4 µM), 0.566. Further, the relative viability turned out to be 0.605 in the assay with Selisistat + AZD7762 (first compound 12.65 µM); 0.732 in the assay with Selisistat + AZD7762 (first compound 40 µM); 0.306 in the assay with Selisistat + Tozasertib (first compound 0.4 µM); 0.239 with Selisistat + Tozasertib (first compound 1.265 µM); 0.328 in the assay with Selisistat + Tozasertib (first compound 4 µM); 0.27 with Selisistat + Tozasertib (first compound 12.65 µM). Further, the relative viability with Selisistat + Tozasertib (first compound 40 µM) was found to be 0.255.
